For one compound, inhibition results are on record in ChEMBL document CHEMBL4043168, “The design and SAR of a novel series of 2-aminopyridine based LRRK2 inhibitors” (Bioorg Med Chem Lett, 2017).

Structures are written as SMILES.

Test [1] concerns the target Tyrosine-protein kinase JAK1 (Homo sapiens) (UniProt P23458). Briefly: Inhibition of JAK1 domain1 (QLASALSYLEDKDLVHGNVCTKNLLLAR) in human PBMC at 0.1 uM.
The target of test [2] is Serine/threonine-protein kinase WNK2 (Homo sapiens) (UniProt Q9Y3S1). Briefly: Inhibition of Wnk2 ATP binding site (GSFKTVYK) in human PBMC at 0.1 uM.
In test [3] the target is Kinase suppressor of Ras 1 (Homo sapiens) (UniProt Q8IVT5). Briefly: Inhibition of KSR1 activation Loop (SKNVFYDNGK) in human PBMC at 1 uM.
Test [4] deals with T1, Serine/threonine-protein kinase 4 (Homo sapiens) (UniProt Q13043).
T1 sequence (whole entry): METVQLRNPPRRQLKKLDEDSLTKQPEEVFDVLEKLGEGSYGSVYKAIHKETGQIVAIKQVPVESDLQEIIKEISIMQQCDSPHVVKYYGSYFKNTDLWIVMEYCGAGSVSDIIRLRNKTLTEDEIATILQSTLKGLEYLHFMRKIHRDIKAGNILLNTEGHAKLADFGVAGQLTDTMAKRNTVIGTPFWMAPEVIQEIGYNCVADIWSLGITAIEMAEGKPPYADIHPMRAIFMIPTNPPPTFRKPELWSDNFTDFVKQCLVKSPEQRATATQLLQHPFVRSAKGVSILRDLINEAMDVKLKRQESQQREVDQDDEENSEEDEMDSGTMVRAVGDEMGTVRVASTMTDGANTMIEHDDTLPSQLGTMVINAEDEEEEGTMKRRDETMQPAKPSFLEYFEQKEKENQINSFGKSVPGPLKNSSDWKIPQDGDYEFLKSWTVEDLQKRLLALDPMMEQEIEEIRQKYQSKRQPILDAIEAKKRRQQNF
Briefly: Inhibition of MST1 conserved Lys2 (DIKAGNILLNTEGHAK) in human PBMC at 1 uM.

Test [5] deals with Serine/threonine-protein kinase/endoribonuclease IRE1 (Homo sapiens) (UniProt O75460). Briefly: Inhibition of IRE1 conserved Lys2 (DLKPHNILISMPNAHGK) in human PBMC at 0.1 uM.
The target of test [6] is Glycogen synthase kinase-3 beta (Homo sapiens) (UniProt P49841). Briefly: Inhibition of GSK3B conserved Lys2 (DIKPQNLLLDPDTAVLK) in human PBMC at 0.1 uM.
In test [7] the target is T2, Phosphatidylinositol 4,5-bisphosphate 3-kinase catalytic subunit delta isoform (Homo sapiens) (UniProt O00329).
T2 sequence (whole entry): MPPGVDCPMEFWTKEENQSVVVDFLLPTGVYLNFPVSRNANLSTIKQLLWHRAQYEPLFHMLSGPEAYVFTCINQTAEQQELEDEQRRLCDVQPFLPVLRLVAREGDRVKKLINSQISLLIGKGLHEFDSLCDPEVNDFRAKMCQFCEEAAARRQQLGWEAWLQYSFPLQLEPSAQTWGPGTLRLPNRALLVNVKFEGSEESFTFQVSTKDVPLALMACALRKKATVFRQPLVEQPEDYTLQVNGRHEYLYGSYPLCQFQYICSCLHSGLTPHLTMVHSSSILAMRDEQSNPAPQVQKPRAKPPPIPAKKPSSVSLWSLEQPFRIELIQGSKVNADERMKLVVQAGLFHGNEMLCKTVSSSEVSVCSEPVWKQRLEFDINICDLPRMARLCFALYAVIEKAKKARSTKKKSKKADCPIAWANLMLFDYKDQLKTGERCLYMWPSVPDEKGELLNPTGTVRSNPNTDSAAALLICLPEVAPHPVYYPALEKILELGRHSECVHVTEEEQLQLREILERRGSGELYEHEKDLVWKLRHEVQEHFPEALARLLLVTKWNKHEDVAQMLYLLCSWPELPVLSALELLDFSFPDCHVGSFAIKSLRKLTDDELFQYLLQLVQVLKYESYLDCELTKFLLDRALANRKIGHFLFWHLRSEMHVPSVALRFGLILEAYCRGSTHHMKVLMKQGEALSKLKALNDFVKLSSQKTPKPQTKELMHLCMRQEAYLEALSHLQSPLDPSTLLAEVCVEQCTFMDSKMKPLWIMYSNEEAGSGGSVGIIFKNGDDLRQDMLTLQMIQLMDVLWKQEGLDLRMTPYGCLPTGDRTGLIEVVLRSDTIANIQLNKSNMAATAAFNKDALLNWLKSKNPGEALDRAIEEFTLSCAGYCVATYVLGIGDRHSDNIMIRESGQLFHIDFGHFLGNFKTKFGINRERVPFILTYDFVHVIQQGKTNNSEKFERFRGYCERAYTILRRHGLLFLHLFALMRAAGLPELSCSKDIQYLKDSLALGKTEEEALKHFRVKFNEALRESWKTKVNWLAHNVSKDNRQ
Briefly: Inhibition of PIK3CD ATP binding site (VNWLAHNVSKDNRQ) in human PBMC at 0.1 uM.

Test [8] addresses Serine/threonine-protein kinase/endoribonuclease IRE1 (Homo sapiens) (UniProt O75460). Briefly: Inhibition of IRE1 conserved Lys2 (DLKPHNILISMPNAHGK) in human PBMC at 1 uM.
The nature of test [9]: Inhibition of GCK conserved Lys1 (DTVTSELAAVKIVK) in human PBMC at 1 uM.
Test [10] has as its target Ribosomal protein S6 kinase alpha-3 (Homo sapiens) (UniProt P51812). Briefly: Inhibition of RSK2 domain1 activation Loop (LTDFGLSKESIDHEKK) in human PBMC at 1 uM.
The target in test [11] is T3, Serine/threonine-protein kinase ULK3 (Homo sapiens) (UniProt Q6PHR2).
T3 sequence (whole entry): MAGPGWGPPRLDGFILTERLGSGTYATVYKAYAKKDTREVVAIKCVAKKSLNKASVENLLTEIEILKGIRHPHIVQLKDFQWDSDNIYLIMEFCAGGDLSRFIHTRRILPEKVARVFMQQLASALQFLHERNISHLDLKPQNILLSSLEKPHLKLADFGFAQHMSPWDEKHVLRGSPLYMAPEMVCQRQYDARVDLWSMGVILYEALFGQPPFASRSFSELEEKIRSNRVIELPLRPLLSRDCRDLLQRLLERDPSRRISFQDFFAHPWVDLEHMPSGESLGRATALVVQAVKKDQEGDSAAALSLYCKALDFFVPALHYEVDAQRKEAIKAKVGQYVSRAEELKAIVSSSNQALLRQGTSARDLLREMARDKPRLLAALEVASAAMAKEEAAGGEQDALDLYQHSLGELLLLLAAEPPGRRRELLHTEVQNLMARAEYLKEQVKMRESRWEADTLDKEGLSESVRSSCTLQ
Briefly: Inhibition of ULK3 conserved Lys1 (EVVAIKCVAK) in human PBMC at 1 uM. The following applies: pooled result: one value given for 4 cell lines, strains, targets or settings.

Test [12] deals with 5'-AMP-activated protein kinase catalytic subunit alpha-1 (Homo sapiens) (UniProt Q13131). Briefly: Inhibition of AMPKa1 labeling at conserved Lys1 (VAVKILNR) in human PBMC at 1 uM.
For test [13], the target named is Serine/threonine-protein kinase B-raf (Homo sapiens) (UniProt P15056). Briefly: Inhibition of BRAF labeling at conserved Lys2 (DLKSNNIFLHEDLTVK) in human PBMC at 1 uM.
Sequence of Serine/threonine-protein kinase B-raf (Homo sapiens) (P15056 whole entry): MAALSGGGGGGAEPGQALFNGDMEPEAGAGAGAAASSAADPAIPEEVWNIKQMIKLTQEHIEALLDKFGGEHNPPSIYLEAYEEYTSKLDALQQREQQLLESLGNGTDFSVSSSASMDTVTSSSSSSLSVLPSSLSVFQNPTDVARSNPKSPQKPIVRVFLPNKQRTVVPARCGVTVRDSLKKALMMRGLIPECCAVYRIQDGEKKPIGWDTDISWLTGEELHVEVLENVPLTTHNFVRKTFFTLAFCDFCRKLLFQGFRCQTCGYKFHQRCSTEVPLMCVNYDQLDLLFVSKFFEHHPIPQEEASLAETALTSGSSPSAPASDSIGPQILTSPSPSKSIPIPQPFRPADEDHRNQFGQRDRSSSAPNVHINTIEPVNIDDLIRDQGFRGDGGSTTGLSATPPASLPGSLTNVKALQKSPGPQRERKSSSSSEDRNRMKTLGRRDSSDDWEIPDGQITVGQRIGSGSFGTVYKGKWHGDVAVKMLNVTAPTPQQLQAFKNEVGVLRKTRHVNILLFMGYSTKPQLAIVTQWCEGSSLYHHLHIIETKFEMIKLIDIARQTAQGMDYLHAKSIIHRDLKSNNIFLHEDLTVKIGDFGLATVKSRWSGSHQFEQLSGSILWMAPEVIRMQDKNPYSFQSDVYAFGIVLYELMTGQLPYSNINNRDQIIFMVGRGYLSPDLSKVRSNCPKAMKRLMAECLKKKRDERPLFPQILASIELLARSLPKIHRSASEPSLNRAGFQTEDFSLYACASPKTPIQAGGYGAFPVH

Sequence of Serine/threonine-protein kinase/endoribonuclease IRE1 (Homo sapiens) (O75460 19-977 limits assumed): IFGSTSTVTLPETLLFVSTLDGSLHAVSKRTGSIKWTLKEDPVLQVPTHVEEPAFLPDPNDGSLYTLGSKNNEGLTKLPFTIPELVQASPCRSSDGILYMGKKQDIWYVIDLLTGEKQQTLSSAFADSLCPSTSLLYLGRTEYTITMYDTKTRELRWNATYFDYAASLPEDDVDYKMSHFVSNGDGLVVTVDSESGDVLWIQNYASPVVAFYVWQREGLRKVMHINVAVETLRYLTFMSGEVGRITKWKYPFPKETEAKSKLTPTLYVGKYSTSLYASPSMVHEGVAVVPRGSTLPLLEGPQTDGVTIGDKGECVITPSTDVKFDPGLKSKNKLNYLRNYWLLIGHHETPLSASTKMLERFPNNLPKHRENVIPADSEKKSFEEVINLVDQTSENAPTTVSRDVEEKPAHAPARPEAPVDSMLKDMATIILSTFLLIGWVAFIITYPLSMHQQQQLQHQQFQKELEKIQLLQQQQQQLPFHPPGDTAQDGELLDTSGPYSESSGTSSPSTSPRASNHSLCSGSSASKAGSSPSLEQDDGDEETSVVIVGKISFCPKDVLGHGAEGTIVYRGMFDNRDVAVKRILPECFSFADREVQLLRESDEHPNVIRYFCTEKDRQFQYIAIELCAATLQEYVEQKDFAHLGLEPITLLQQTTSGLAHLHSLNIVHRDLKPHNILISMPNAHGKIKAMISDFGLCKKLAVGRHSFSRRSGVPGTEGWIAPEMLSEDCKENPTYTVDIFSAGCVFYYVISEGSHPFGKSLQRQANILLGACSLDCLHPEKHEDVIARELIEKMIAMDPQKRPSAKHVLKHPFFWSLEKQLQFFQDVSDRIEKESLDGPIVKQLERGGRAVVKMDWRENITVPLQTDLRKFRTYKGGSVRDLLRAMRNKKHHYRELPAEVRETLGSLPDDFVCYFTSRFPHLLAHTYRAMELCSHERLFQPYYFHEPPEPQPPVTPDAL
Sequence of Kinase suppressor of Ras 1 (Homo sapiens) (Q8IVT5 whole entry): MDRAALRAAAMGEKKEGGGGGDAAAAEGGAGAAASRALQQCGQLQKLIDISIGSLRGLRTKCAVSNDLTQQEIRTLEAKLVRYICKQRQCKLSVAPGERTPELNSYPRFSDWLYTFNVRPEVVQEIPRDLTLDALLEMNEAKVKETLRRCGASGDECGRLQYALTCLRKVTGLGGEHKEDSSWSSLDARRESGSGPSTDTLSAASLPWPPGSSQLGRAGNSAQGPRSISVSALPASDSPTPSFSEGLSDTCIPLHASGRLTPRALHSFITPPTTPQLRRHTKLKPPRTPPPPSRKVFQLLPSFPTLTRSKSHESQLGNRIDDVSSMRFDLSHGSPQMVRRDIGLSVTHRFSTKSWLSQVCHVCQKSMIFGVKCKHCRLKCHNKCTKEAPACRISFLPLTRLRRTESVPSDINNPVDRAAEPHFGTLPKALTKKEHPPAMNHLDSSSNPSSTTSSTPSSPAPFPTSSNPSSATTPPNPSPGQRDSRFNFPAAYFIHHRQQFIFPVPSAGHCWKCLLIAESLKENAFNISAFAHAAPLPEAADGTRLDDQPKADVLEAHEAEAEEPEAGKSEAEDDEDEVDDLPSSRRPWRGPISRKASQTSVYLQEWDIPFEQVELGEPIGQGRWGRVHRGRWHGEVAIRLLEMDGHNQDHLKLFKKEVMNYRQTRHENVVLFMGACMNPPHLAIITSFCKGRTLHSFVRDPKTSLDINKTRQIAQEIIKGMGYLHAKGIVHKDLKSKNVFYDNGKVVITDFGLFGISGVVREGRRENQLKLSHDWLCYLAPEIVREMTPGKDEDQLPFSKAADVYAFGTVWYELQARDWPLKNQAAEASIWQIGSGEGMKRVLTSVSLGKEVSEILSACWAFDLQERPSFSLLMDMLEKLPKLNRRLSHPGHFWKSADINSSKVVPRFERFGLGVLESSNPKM
Sequence of Tyrosine-protein kinase JAK1 (Homo sapiens) (P23458 whole entry, the tested form may be a part): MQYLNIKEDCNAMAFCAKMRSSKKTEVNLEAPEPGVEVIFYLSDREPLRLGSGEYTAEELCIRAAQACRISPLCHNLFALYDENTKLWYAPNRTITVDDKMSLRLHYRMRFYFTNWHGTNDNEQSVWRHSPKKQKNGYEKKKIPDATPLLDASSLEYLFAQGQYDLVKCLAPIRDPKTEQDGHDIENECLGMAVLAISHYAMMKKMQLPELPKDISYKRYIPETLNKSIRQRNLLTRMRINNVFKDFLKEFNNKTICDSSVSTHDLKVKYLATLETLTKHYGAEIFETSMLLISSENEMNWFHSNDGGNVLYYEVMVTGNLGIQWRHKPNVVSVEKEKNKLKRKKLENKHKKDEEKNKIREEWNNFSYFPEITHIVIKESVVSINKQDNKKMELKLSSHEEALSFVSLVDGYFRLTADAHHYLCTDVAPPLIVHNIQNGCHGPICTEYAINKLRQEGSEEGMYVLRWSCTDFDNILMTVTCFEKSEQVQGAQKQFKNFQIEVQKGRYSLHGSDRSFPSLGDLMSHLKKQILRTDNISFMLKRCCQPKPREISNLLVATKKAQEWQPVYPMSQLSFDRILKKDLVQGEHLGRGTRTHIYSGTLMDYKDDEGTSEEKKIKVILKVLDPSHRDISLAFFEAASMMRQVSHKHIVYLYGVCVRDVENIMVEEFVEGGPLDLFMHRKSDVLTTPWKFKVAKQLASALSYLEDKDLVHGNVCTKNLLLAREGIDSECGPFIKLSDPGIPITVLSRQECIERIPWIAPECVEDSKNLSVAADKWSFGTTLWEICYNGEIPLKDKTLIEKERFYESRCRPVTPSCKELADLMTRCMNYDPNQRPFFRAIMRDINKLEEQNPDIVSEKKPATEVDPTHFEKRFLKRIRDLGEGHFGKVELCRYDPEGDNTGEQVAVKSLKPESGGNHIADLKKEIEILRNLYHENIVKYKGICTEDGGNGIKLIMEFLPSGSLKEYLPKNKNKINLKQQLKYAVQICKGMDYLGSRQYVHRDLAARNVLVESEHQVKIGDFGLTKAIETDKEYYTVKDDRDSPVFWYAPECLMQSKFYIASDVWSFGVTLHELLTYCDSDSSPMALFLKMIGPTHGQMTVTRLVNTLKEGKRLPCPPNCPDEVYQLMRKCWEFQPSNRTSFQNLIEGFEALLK
Sequence of Ribosomal protein S6 kinase alpha-3 (Homo sapiens) (P51812 whole entry, the tested form may be a part): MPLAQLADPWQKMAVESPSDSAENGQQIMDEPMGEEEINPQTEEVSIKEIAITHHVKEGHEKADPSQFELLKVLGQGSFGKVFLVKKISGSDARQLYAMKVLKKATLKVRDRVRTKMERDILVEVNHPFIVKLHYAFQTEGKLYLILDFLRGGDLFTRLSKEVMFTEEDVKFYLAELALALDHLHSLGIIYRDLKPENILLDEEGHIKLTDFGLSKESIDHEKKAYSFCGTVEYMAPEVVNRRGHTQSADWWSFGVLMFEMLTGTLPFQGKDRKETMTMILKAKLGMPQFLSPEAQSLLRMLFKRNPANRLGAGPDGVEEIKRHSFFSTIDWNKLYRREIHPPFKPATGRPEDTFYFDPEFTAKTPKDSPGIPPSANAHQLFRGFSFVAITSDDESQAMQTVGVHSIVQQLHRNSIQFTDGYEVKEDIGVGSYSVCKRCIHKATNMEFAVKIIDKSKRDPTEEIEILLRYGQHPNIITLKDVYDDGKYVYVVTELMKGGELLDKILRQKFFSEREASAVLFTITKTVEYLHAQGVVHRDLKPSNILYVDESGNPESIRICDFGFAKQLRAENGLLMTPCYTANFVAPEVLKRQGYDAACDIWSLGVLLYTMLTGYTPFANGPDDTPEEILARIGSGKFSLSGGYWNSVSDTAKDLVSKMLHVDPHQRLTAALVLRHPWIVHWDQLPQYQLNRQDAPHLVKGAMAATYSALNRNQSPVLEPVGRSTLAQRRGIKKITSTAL
Sequence of 5'-AMP-activated protein kinase catalytic subunit alpha-1 (Homo sapiens) (Q13131 whole entry, looked up): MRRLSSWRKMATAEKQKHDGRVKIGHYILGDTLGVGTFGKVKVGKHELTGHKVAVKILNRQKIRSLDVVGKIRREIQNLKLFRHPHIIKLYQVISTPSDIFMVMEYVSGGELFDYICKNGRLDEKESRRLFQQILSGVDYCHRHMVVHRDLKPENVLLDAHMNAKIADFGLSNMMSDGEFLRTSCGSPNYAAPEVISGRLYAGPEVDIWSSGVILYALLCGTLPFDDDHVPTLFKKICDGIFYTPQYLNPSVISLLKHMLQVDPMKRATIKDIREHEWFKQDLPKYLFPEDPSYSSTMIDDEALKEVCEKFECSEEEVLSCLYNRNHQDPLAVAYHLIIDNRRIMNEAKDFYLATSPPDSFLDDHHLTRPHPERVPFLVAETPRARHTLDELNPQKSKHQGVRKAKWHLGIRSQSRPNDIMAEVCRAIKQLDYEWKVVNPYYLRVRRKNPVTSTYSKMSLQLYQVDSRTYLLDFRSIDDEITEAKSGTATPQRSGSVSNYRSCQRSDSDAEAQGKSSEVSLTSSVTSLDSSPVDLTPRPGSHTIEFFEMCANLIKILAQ

A word on the inhibition: it is the change of the read-out against control, counted positive when it falls. `CC(C)n1cc(-c2cc(-c3ccc(CN4CCOCC4)cc3)cnc2N)nn1`: the inhibition in [1] was 16.4%; in test [2], 18.3%; in test [3], 20.1%; in test [4], 0%; in test [5] it was 22.1%; in test [6] it was -10%. Moreover, the inhibition in test [7] came to 0.5%; in [8], 26.6%; in test [9], 0.5%; in test [10], 22%; in [11], 23.5%; in test [12], 17.3%. Also, the inhibition in test [13] was 11.4%.
